Experimental data: ChEMBL document CHEMBL1201862, “PubChem BioAssay data set” (2004)
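Briefly, cells in 96-well plates were exposed to five compound concentrations for 48 h, and endpoints were estimated by linear interpolation. GI50: concentration for 50% inhibition of growth.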 Active and inactive are the calls of the source. Rule as the data show it: active = GI50 up to about 1.1 µM and inactive = higher.

Columns and labels:
Assay in all cases: growth of human tumour cells (NCI), 48 h
HOP-18 = system: HOP-18
M19-MEL = system: M19-MEL
RXF 631 = system: RXF 631
LXFL 529 = system: LXFL 529
DLD-1 = system: DLD-1
XF498 = system: XF498
KM-20L2 = system: KM-20L2
DMS-273 = system: DMS-273
DMS-114 = system: DMS-114

| SMILES | GI50 (HOP-18) | GI50 (M19-MEL) | GI50 (RXF 631) | GI50 (LXFL 529) | GI50 (DLD-1) | GI50 (XF498) | GI50 (KM-20L2) | GI50 (DMS-273) | GI50 (DMS-114) |
| --- | --- | --- | --- | --- | --- | --- | --- | --- | --- |
| O=C1NC2C(=CC(O)C(O)C2O)c2cc3c(cc21)OCO3 (stereo not drawn) | 1.48 µM (inactive) | 0.251 µM (active) | 0.433 µM (active) | 0.43 µM (active) | 0.255 µM (active) | 0.171 µM (active) | 0.305 µM (active) | 0.436 µM (active) | 0.43 µM (active) |
| COC(=O)C(/C(=N/N)C(=O)Nc1cc(Cl)ccc1Cl)c1nc2ccc([N+](=O)[O-])cc2nc1O (stereo not drawn) | – | – | – | 48 µM (inactive) | – | > 100 µM (inactive) | 49.9 µM (inactive) | 57.3 µM (inactive) | 50.2 µM (inactive) |
| N#Cc1ccc(/C=N/C23CC4CC(CC(C4)C2)C3)cc1 | – | > 100 µM (inactive) | 32.5 µM (inactive) | – | – | – | > 100 µM (inactive) | 98.2 µM (inactive) | 56 µM (inactive) |
| O=c1[nH]nc2ccccc2c1Cc1ccccc1 | > 100 µM (inactive) | > 100 µM (inactive) | – | – | > 100 µM (inactive) | > 100 µM (inactive) | > 100 µM (inactive) | > 100 µM (inactive) | > 100 µM (inactive) |
| CC(=O)C1C(=O)N(C(C)C)C[C@@H]2CCC(=O)C[C@H]12 (stereo partly drawn) | – | > 100 µM (inactive) | > 100 µM (inactive) | > 100 µM (inactive) | > 100 µM (inactive) | > 100 µM (inactive) | – | > 100 µM (inactive) | > 100 µM (inactive) |
| CCN(N=O)C1C2(CCCC2)NC(=O)C12CCCC2 (stereo not drawn) | > 100 µM (inactive) | > 100 µM (inactive) | > 100 µM (inactive) | > 100 µM (inactive) | > 100 µM (inactive) | > 100 µM (inactive) | > 100 µM (inactive) | – | > 100 µM (inactive) |
| CC(C)C1CCC/C=C/C=C/C=C/C=C/C(OC2OC(C)C(O)C(N)C2O)CC2OC(O)(CC(O)CC(O)C(O)CCC(=O)O1)CC(O)C2C(=O)O (stereo not drawn) | > 52.5 µM (inactive) | > 52.5 µM (inactive) | – | > 52.5 µM (inactive) | – | – | > 52.5 µM (inactive) | – | > 52.5 µM (inactive) |
| C=CNC(=O)NC(=O)CSc1nc(=O)c(-c2ccccc2NC(=O)C(F)(F)F)n[nH]1 | – | > 100 µM (inactive) | – | > 100 µM (inactive) | 2.81 µM (inactive) | 33.9 µM (inactive) | – | 43.9 µM (inactive) | 21.1 µM (inactive) |
| Cc1c2n(c(=O)[nH]c1=O)C1OC(CO)C(O2)C1O (stereo not drawn) | – | > 100 µM (inactive) | – | > 100 µM (inactive) | > 100 µM (inactive) | – | > 100 µM (inactive) | > 100 µM (inactive) | > 100 µM (inactive) |
| O=C(c1ccc(Cl)cc1)N(C(=S)N1CCN(c2ccccn2)CC1)C1CCCCC1 | > 100 µM (inactive) | > 100 µM (inactive) | – | 75.7 µM (inactive) | 81.7 µM (inactive) | 8.26 µM (inactive) | 74.1 µM (inactive) | 34.3 µM (inactive) | 34.9 µM (inactive) |
| CCOc1ccc2c(c1)[n+]([O-])c(-c1nc3ccccc3s1)c(N)[n+]2[O-] | 15.4 µM (inactive) | > 100 µM (inactive) | – | 37.4 µM (inactive) | 76.4 µM (inactive) | 25.8 µM (inactive) | > 100 µM (inactive) | 52.6 µM (inactive) | 44.1 µM (inactive) |
| O=C(O)c1ccccc1/N=N/c1ccc2oc(=O)c(C(=O)Nc3ccccc3)cc2c1 | 30.1 µM (inactive) | 33.3 µM (inactive) | – | – | 40.9 µM (inactive) | 45.8 µM (inactive) | 24.8 µM (inactive) | 39 µM (inactive) | 25.1 µM (inactive) |
| COC(=O)Cc1cc(=O)oc2c1C(=O)CCC2 | – | > 100 µM (inactive) | – | > 100 µM (inactive) | > 100 µM (inactive) | > 100 µM (inactive) | > 100 µM (inactive) | > 100 µM (inactive) | > 100 µM (inactive) |
| Cc1c(C(=O)/C=C/c2c(Cl)cccc2Cl)c(=O)n(-c2ccccc2)n1C | – | 8.55 µM (inactive) | – | 5.47 µM (inactive) | – | 19.6 µM (inactive) | 19.6 µM (inactive) | 4.82 µM (inactive) | 22.7 µM (inactive) |
| CCCN(CCCN)/[N+]([O-])=N\O | > 100 µM (inactive) | > 100 µM (inactive) | > 100 µM (inactive) | > 100 µM (inactive) | > 100 µM (inactive) | – | 0.4 µM (active) | > 100 µM (inactive) | > 100 µM (inactive) |
| C[S+](C)CCOC(=O)C(=[N+]=[N-])c1ccc([N+](=O)[O-])cc1 | > 100 µM (inactive) | > 100 µM (inactive) | > 100 µM (inactive) | > 100 µM (inactive) | – | > 100 µM (inactive) | > 100 µM (inactive) | > 100 µM (inactive) | > 100 µM (inactive) |
| COC1(OC)C(N(C)C)=C(Cl)C(=O)/C1=C/C=O | > 100 µM (inactive) | 74.6 µM (inactive) | – | > 100 µM (inactive) | > 100 µM (inactive) | – | > 100 µM (inactive) | > 100 µM (inactive) | > 100 µM (inactive) |
| O=C1c2ccccc2C(=O)c2sc(Nc3ccc([N+](=O)[O-])cc3)nc21 | 4.33 µM (inactive) | 1.55 µM (inactive) | 19.5 µM (inactive) | 1.66 µM (inactive) | 4.19 µM (inactive) | 2.17 µM (inactive) | 22.7 µM (inactive) | 7.69 µM (inactive) | 2.49 µM (inactive) |
| COC1OC(C)C(O)CC1OS(=O)(=O)c1ccc(C)cc1 (stereo not drawn) | > 100 µM (inactive) | > 100 µM (inactive) | – | > 100 µM (inactive) | – | – | > 100 µM (inactive) | > 100 µM (inactive) | > 100 µM (inactive) |
| CC(C)(C)c1cc(C(P(=O)(O)O)P(=O)(O)O)cc(C(C)(C)C)c1O | > 100 µM (inactive) | > 100 µM (inactive) | – | > 100 µM (inactive) | > 100 µM (inactive) | – | > 100 µM (inactive) | > 100 µM (inactive) | > 100 µM (inactive) |
| Nc1ccn(C2(CO)C=C(CO)C(O)C2O)c(=O)n1 (stereo not drawn) | > 25.8 µM (inactive) | > 25.8 µM (inactive) | – | > 25.8 µM (inactive) | > 25.8 µM (inactive) | – | > 25.8 µM (inactive) | > 25.8 µM (inactive) | > 25.8 µM (inactive) |
| COc1cc(O)c2c(c1)C(=O)C1=C(C2=O)C(O)C[C@@](C)(O)C1 (stereo partly drawn) | – | 0.452 µM (active) | – | 0.582 µM (active) | 0.229 µM (active) | 1.9 µM (inactive) | 3.36 µM (inactive) | 1.57 µM (inactive) | 1.5 µM (inactive) |
